In ChEMBL document CHEMBL1156829 (Proc Natl Acad Sci U S A, 2008):

Columns and labels:
Plasmodium falciparum [1] = experiment: NOVARTIS: Inhibition of Plasmodium falciparum 3D7 (drug-susceptible) proliferation in erythrocyte-based infection assay; type: functional, organism-based; conditions: Plasmodium falciparum, 3D7
Plasmodium falciparum [2] = experiment: NOVARTIS: Inhibition of Plasmodium falciparum W2 (drug-resistant) proliferation in erythrocyte-based infection assay; type: functional, organism-based; conditions: Plasmodium falciparum, W2; read-out: EC50
[3] = NOVARTIS: Cytotoxicity against human hepatocellular carcinoma cell line (Huh7); type: toxicity, cell-based, Huh-7; conditions: Huh7 cells (hepatocellular carcinoma cell line)

CCOC(=O)N1CCN(C(=O)c2ccc(N3CC4CC(C3)c3cccc(=O)n3C4)c(NS(=O)(=O)c3ccc4c(c3)OCCO4)c2)CC1 (configuration not stated)
EC50 (Plasmodium falciparum [1]): 2470 nM
EC50 (Plasmodium falciparum [2]): 589 nM
CC50 [3]: > 100000 nM

CCN(CC)CCCNc1nc2cc(OC)c(OC)cc2c2nc(-c3ccccc3)nn12
EC50 (Plasmodium falciparum [1]): 3250 nM
EC50 (Plasmodium falciparum [2]): 1170 nM
CC50 [3]: > 100000 nM

CCCN(C(=O)Nc1c(C(C)C)cccc1C(C)C)C(CC)c1nc2ccccc2c(=O)n1-c1cccc(C)c1 (configuration not stated)
EC50 (Plasmodium falciparum [1]): 3170 nM
EC50 (Plasmodium falciparum [2]): 4580 nM
CC50 [3]: 80900 nM

COC(=O)c1ccc(Cn2cc(C=O)c3ccccc32)o1
EC50 (Plasmodium falciparum [1]): > 1250 nM
EC50 (Plasmodium falciparum [2]): > 707 nM
CC50 [3]: > 10000 nM

OCCCNc1cc(-c2ccnc(Nc3cccc(Cl)c3)n2)ccn1
EC50 (Plasmodium falciparum [1]): 232 nM
EC50 (Plasmodium falciparum [2]): 186 nM
CC50 [3]: 269 nM

COC(=O)C1=C(C)NC2=C(C(=O)CC(C)(C)C2)C1c1ccc(C)o1 (configuration not stated)
EC50 (Plasmodium falciparum [1]): 1580 nM
EC50 (Plasmodium falciparum [2]): 638 nM
CC50 [3]: > 100000 nM

CC(C)(C)c1ccc(C(=O)Nc2ccc(NC(=O)c3ccc(-c4cccc([N+](=O)[O-])c4)o3)cc2)cc1
EC50 (Plasmodium falciparum [1]): > 1460 nM
EC50 (Plasmodium falciparum [2]): > 429 nM
CC50 [3]: > 10000 nM

c1ccc(-c2cc(NCc3ccco3)nc(-c3ccccn3)n2)nc1
EC50 (Plasmodium falciparum [1]): 182 nM
EC50 (Plasmodium falciparum [2]): 91.4 nM
CC50 [3]: > 10000 nM

CN(C)CCNC(=O)c1c[nH]c2ccc(S(=O)(=O)N3CCc4ccccc43)cc2c1=O
EC50 (Plasmodium falciparum [1]): 418 nM
EC50 (Plasmodium falciparum [2]): > 1250 nM
CC50 [3]: > 10000 nM

C=Cc1cc2ccccc2c2cc3c(cc12)C[N+](C)(C)C3
EC50 (Plasmodium falciparum [1]): 654 nM
EC50 (Plasmodium falciparum [2]): 974 nM
CC50 [3]: > 100000 nM

COc1ccc(/C=C2\N=C(c3ccc(Cl)cc3)N(c3cc(Cl)ccc3C)C2=O)cc1OC
EC50 (Plasmodium falciparum [1]): > 1250 nM
EC50 (Plasmodium falciparum [2]): > 949 nM
CC50 [3]: > 10000 nM

O=C(NC(=S)Nc1ccc([N+](=O)[O-])cc1Cl)c1ccco1
EC50 (Plasmodium falciparum [1]): > 1530 nM
EC50 (Plasmodium falciparum [2]): > 769 nM
CC50 [3]: > 10000 nM

O=C1c2ccccc2-c2nc3ccc(C(F)(F)F)cc3nc21
EC50 (Plasmodium falciparum [1]): 1140 nM
EC50 (Plasmodium falciparum [2]): 1260 nM
CC50 [3]: > 10000 nM

CCCN(CC1CC1)C(=O)C1CCCN(c2cccc3c2C(=O)N(Cc2cc(OC)c(OC)c(OC)c2)C3=O)C1 (configuration not stated)
EC50 (Plasmodium falciparum [1]): > 1250 nM
EC50 (Plasmodium falciparum [2]): 1120 nM
CC50 [3]: > 10000 nM

CC(Cc1ccccc1Sc1ccccc1O)N(C)C (configuration not stated)
EC50 (Plasmodium falciparum [1]): 2040 nM
EC50 (Plasmodium falciparum [2]): 722 nM
CC50 [3]: 34000 nM

Cc1cc(C)cc(NCC(O)Cn2c3ccc(Cl)cc3c3cc(Cl)ccc32)c1 (configuration not stated)
EC50 (Plasmodium falciparum [1]): 2220 nM
EC50 (Plasmodium falciparum [2]): 569 nM
CC50 [3]: 31200 nM

CCn1c(-c2ccc(O)cc2)nn(CN2CCN(Cc3ccc4c(c3)OCO4)CC2)c1=S
EC50 (Plasmodium falciparum [1]): > 1250 nM
EC50 (Plasmodium falciparum [2]): > 1200 nM
CC50 [3]: > 10000 nM

Cc1ccc2nc(-c3ccc(O)cc3)oc2c1
EC50 (Plasmodium falciparum [1]): > 1250 nM
EC50 (Plasmodium falciparum [2]): > 635 nM
CC50 [3]: > 10000 nM

CCOC(=O)C1=C(C)NC2=C(C(=O)CC(c3ccc(OC)c(OC)c3)C2)C1c1c(F)cccc1Cl (configuration not stated)
EC50 (Plasmodium falciparum [1]): 76.7 nM
EC50 (Plasmodium falciparum [2]): 23 nM
CC50 [3]: > 100000 nM

COc1cc(NC(C)CCCN(Cc2ccc(Cl)cc2)C(=O)Nc2cccc(C(F)(F)F)c2)c2ncccc2c1 (configuration not stated)
EC50 (Plasmodium falciparum [1]): 798 nM
EC50 (Plasmodium falciparum [2]): 332 nM
CC50 [3]: > 4440 nM

O=C(NCSC1=NCCS1)c1ccccc1
EC50 (Plasmodium falciparum [1]): > 12500 nM
EC50 (Plasmodium falciparum [2]): > 6030 nM
CC50 [3]: > 100000 nM

CC(C)CNC(=O)c1cnc(NCCCN2CCCC2)nc1NC1CCCC1
EC50 (Plasmodium falciparum [1]): 774 nM
EC50 (Plasmodium falciparum [2]): > 1250 nM
CC50 [3]: > 10000 nM

Nc1ccc(-c2nc(-c3ccc(N)cc3)c3ccccc3n2)cc1
EC50 (Plasmodium falciparum [1]): > 1250 nM
EC50 (Plasmodium falciparum [2]): 759 nM
CC50 [3]: > 10000 nM

CCCCCC(=O)N(CCN(C)C)C(CC)c1nc2ccccc2c(=O)n1-c1ccc(F)cc1 (configuration not stated)
EC50 (Plasmodium falciparum [1]): > 1250 nM
EC50 (Plasmodium falciparum [2]): > 628 nM
CC50 [3]: > 10000 nM

COc1ccc(NC(=O)c2cc3cc(C4(O)CCN(CC5CC=CCC5)CC4)ccc3o2)cc1 (configuration not stated)
EC50 (Plasmodium falciparum [1]): 381 nM
EC50 (Plasmodium falciparum [2]): 824 nM
CC50 [3]: 25100 nM

CC(=O)N(C1=C(N2CCOCC2)C(=O)c2ccccc2C1=O)c1ccc(F)cc1
EC50 (Plasmodium falciparum [1]): 12.9 nM
EC50 (Plasmodium falciparum [2]): 14 nM
CC50 [3]: 173 nM

O=C1c2ccc3c4c(ccc(c24)C(=O)N1CCCCO)C(=O)N(CCCCO)C3=O
EC50 (Plasmodium falciparum [1]): 354 nM
EC50 (Plasmodium falciparum [2]): 77.4 nM
CC50 [3]: 4380 nM

N#Cc1c(N)nc2sc(C(=O)c3ccc(F)cc3)c(N)c2c1-c1ccccc1
EC50 (Plasmodium falciparum [1]): > 1250 nM
EC50 (Plasmodium falciparum [2]): > 915 nM
CC50 [3]: > 10000 nM

CCOC(=O)C1=C(C)NC2=C(C(=O)CC(c3ccc(OC)c(OC)c3)C2)C1c1ccccc1F (configuration not stated)
EC50 (Plasmodium falciparum [1]): 27.6 nM
EC50 (Plasmodium falciparum [2]): 26.4 nM
CC50 [3]: > 100000 nM

CN(C(=O)CCNC(=O)Cn1cnc2ccccc2c1=O)C1CCCCC1
EC50 (Plasmodium falciparum [1]): > 1250 nM
EC50 (Plasmodium falciparum [2]): > 636 nM
CC50 [3]: > 10000 nM

CCCCC(=O)Oc1ccccc1-c1nc2ccccn2c1NC(C)(C)CC(C)(C)C
EC50 (Plasmodium falciparum [1]): 296 nM
EC50 (Plasmodium falciparum [2]): < 7.1 nM
CC50 [3]: 1920 nM

CCCCNC(=O)c1ccc2c(c1)N=C(CC(C)c1ccccc1)N(C1CCCCC1)C2 (configuration not stated)
EC50 (Plasmodium falciparum [1]): 1450 nM
EC50 (Plasmodium falciparum [2]): 8210 nM
CC50 [3]: 48700 nM

COc1ccc(O)c(C=NNc2nc3ccccc3[nH]2)c1
EC50 (Plasmodium falciparum [1]): 576 nM
EC50 (Plasmodium falciparum [2]): 355 nM
CC50 [3]: 43900 nM

Cc1nc2c(-c3ccccc3)c(C)nn2c(C)c1CC(=O)NCc1ccccn1
EC50 (Plasmodium falciparum [1]): > 12500 nM
EC50 (Plasmodium falciparum [2]): 9140 nM
CC50 [3]: > 100000 nM

Cc1ccc(N2C(=O)C3C(C2=O)C2(c4ccccc4)C(=O)C3(c3ccccc3)C(c3ccccc3)=C2c2ccccc2)cc1Br (configuration not stated)
EC50 (Plasmodium falciparum [1]): 1440 nM
EC50 (Plasmodium falciparum [2]): 1410 nM
CC50 [3]: > 10000 nM

CCCCN(C)CCCNC(=O)c1ccc(Cl)c(NC(=O)Nc2ccc(Cl)c(Cl)c2)c1
EC50 (Plasmodium falciparum [1]): 233 nM
EC50 (Plasmodium falciparum [2]): 822 nM
CC50 [3]: 20300 nM

Cn1c(=O)c2c(ncn2CC(O)CN2CCCC2)n(C)c1=O (configuration not stated)
EC50 (Plasmodium falciparum [1]): > 1250 nM
EC50 (Plasmodium falciparum [2]): > 1190 nM
CC50 [3]: > 10000 nM

CCC(CO)Nc1nccnc1-c1ccccc1Oc1ccccc1 (configuration not stated)
EC50 (Plasmodium falciparum [1]): 4540 nM
EC50 (Plasmodium falciparum [2]): 3560 nM
CC50 [3]: > 100000 nM

COc1ccccc1/C=C/CN(CCN1CCN(S(=O)(=O)c2cccc(C(F)(F)F)c2)CC1)C(=O)Cc1ccccc1
EC50 (Plasmodium falciparum [1]): 1320 nM
EC50 (Plasmodium falciparum [2]): > 1250 nM
CC50 [3]: > 10000 nM

COc1ccc(C(=O)NC(c2ccccc2Cl)c2cc(Cl)c3cccnc3c2O)cc1 (configuration not stated)
EC50 (Plasmodium falciparum [1]): 2370 nM
EC50 (Plasmodium falciparum [2]): 833 nM
CC50 [3]: > 87000 nM

N=c1c2c(n(Cc3ccccc3)c3c1CCC3)CCCC2
EC50 (Plasmodium falciparum [1]): 426 nM
EC50 (Plasmodium falciparum [2]): 738 nM
CC50 [3]: > 10000 nM

Cc1cc(NCCCN(C)C)c2ccccc2n1
EC50 (Plasmodium falciparum [1]): 716 nM
EC50 (Plasmodium falciparum [2]): 1380 nM
CC50 [3]: 53200 nM

CC(=O)N(Cc1ccc(F)cc1)C1=C(NCCc2ccccc2)C(=O)c2ccccc2C1=O
EC50 (Plasmodium falciparum [1]): 5.93 nM
EC50 (Plasmodium falciparum [2]): 18.2 nM
CC50 [3]: 2910 nM

CCCc1nc2ccc(NC(=O)c3ccco3)cc2c(=O)n1Cc1ccc(-c2ccccc2)cc1
EC50 (Plasmodium falciparum [1]): 262 nM
EC50 (Plasmodium falciparum [2]): 422 nM
CC50 [3]: > 100000 nM

Cc1c(Cl)cccc1-n1c(C(C)N(CCc2ccccc2)C(=O)COc2ccccc2)nc2ccccc2c1=O (configuration not stated)
EC50 (Plasmodium falciparum [1]): 614 nM
EC50 (Plasmodium falciparum [2]): 701 nM
CC50 [3]: > 10000 nM

COc1cc(/C=C(\C#N)c2nc3ccccc3[nH]2)ccc1OCc1ccccc1Cl
EC50 (Plasmodium falciparum [1]): > 1250 nM
EC50 (Plasmodium falciparum [2]): 1670 nM
CC50 [3]: > 10000 nM

CN(C)c1ccc(-c2nc(-c3ccc(-c4[nH]c(-c5ccc(N(C)C)cc5)nc4-c4ccccc4)cc3)c(-c3ccccc3)[nH]2)cc1
EC50 (Plasmodium falciparum [1]): 7820 nM
EC50 (Plasmodium falciparum [2]): 2910 nM
CC50 [3]: 68400 nM

COCCNCC(O)CON=C1c2ccccc2-c2ccccc21 (configuration not stated)
EC50 (Plasmodium falciparum [1]): 4790 nM
EC50 (Plasmodium falciparum [2]): 704 nM
CC50 [3]: 23300 nM

Cc1nc(N(C)c2ccc(C(C)C)cc2)c2c(C)c(C(=O)Nc3cc(C)on3)sc2n1
EC50 (Plasmodium falciparum [1]): 248 nM
EC50 (Plasmodium falciparum [2]): 236 nM
CC50 [3]: > 100000 nM
